The source of these data is US20030228299A1, “Use of antioxidant for treating and/or preventing surface ocular disorders” (priority 2003, published 2003).

In series [1] the test system is continuous-line conjunctival cells (Wong-Kilbourne derivative of Chang conjunctiva, clone 1-5C-4, ATCC CCL-20.2). The series can be described thus: Apoptosis induced by benzalkonium chloride, percentage of cellular DNA in the sub-G1 phase by flux cytofluorimetry. The series is classed as cell-based. Here is the method: The apoptosis induced by benzalkonium chloride was chosen as the model of superficial eye disorders treated and/or prevented by the invention.
This study of apoptosis is conducted using flux cytofluorimetry to compare the percentage of DNA in the sub-G1 phase obtained before and after treatment with the compounds of the invention.
In fact, apoptosis is characterized by a fragmentation of the DNA into identical fragments of 200 base pairs. The cells involved in this process therefore have a reduced DNA content.
This fragmentation of the DNA can be measured in situ by flux cytofluorimetry using the DNA stain propidium iodide. The reduced DNA appears with a lower fluorescence intensity than that of normal cells. […] The number of normal cells appears in the G1 peak zone. On the other hand, the cells which have a lower fluorescence intensity, i.e. those whose DNA has been fragmented, appear underneath this G1 peak, i.e. in what is called the sub-G1 peak located in the zone marked M1 in FIG. 1.
Apoptosis was induced by adding 0.001% by volume of benzalkonium chloride (BAC), based on the total volume of the sample, to DMEM (Dulbecco-modified Eagle's medium: reference 21885, Gibco BRL Products; enriched with 10% by volume of fetal calf serum, based on the total volume of the sample, and supplemented with […] of streptomycin and 50 IU/ml of penicillin) in which conjunctival cells are cultivated in 6-well plates.
In practice, the conjunctival cells were cultivated in the culture medium described above and, at 80% confluence, SOD, alpha-lipoic acid and mixtures thereof were added and incubation was carried out for 45 minutes at 37° C. Benzalkonium chloride was then added to each well. After 15 minutes of incubation, the supernatants in each well were collected in 15 ml tubes; the cells were detached by the action of 0.25% trypsin for 5 minutes at 37° C. and added to their respective supernatants. After centrifugation of the tubes, the cells were washed twice in phosphate buffer. The cellular residue was resuspended in phosphate buffer at a concentration of 1 million cells per milliliter.
One hundred microliters of this cellular suspension having a concentration of 10^6/ml were first fixed and permeabilized in one milliliter of absolute ethanol at −20° C. for one hour; then, after washing in phosphate buffer, the DNA was stained with propidium iodide (100 microliters at a concentration of 0.5 mg/ml) for one hour at 4° C. and subsequently analyzed on a cytofluorimeter (Epics XL-MCL, Beckman).
The percentage of sub-G1 peaks, i.e. the percentage of fragmented DNA, and consequently the number of conjunctival cells degraded by apoptosis, was measured.

For series [2] the following is noted: after instillation into the eye (De Saint Jean et al. 1999); cited from earlier work.
Series [3] relates to corneal and/or conjunctival cells of human origin, in culture. The series can be described thus: Dichlorofluorescein diacetate (DCFH-DA) test of free radicals (hydrogen peroxide). The series is classed as cell-based. The settings on record: different concentrations; cells exposed to environmental agents. Here is the method: The tests are performed by cytofluorimetric microtitration in cold light. […] It combines the reproducibility of the microplate methods with the sensitivity of the cytometric methods and has a very broad detection spectrum (280-870 nm). The microplate is scanned by a pencil of light of a given wavelength which illuminates each culture well for less than 0.3 second, thereby limiting any probe extinction phenomenon.
Corneal and/or conjunctival cells of human origin, in culture, are exposed to various environmental agents in order to induce the release of free radicals. The active compounds of the invention (Cu/Zn SOD or alpha-lipoic acid) are tested at different concentrations on this model. The presence of free radicals in the culture medium is evaluated by the DCFH-DA test (Molecular Probes, Eugene, Oreg., USA) in fluorimetry (λexc.=490 nm−rem.=535 nm, I=4 V). The fluorogenic probe becomes fluorescent when it binds to hydrogen peroxide. The DCFH-DA solution used is a 20 μM solution in Dulbecco-modified minimum essential medium (DMEM). The cultures are then placed for 20 minutes in DMEM containing the probe, after which they are extracted in order to measure the production of hydrogen peroxide. The measurement is made directly on the cells in 96-well plates (Debbasch C. et al. 2000).

Series [4] relates to corneal and conjunctival cells of human origin, in culture. The series can be described thus: Hydroethidine test of superoxide anion production. The series is classed as cell-based. The settings on record: different concentrations; cells exposed to various aggressors. Here is the method: Corneal and conjunctival cells of human origin, in culture, exposed to various aggressors in order to induce the release of free radicals, are treated with the active compounds of the present invention (Cu/Zn SOD or alpha-lipoic acid) at different concentrations, or are left untreated.
Hydroethidine (Molecular Probes) is a fluorogenic probe which is oxidized to the ethidium cation in the presence of the superoxide anion. This probe becomes fluorescent when it binds to the superoxide anion (λexc.=490 nm−λem.=600 nm, I=6 V). The hydroethidine solution used is a 5 μM solution. The cell cultures are placed for 10 minutes in DMEM containing the probe, after which the cells are extracted in order to measure the production of superoxide anion. The measurement is made in 96-well microplates.
The analyses are thus performed on 5000 cells per well, each measurement being repeated six times. The results are expressed in fluorescence units. The mean fluorescence values are calculated in each group and compared by a Mann-Whitney non-parametric U-test.

Consider benzalkonium chloride [BAC], for which the “Percentage of sub-G1 peaks” value in series [1] (BAC 0.001% alone in DMEM (reference, maximum apoptosis; DMEM control = 10)) was found to be 23%. The Half-life in series [2] is 20 h.

Regarding `O=C(O)CCCCC1CCSS1` (racemic) [Alpha-lipoic acid, racemic alpha-lipoic acid], the “Percentage of sub-G1 peaks” value in series [1] (alpha-lipoic acid 0.5 μg/ml DMEM + BAC 0.001%) is on record as 8%; in series [1] (alpha-lipoic acid 0.5 μg/ml in DMEM, no BAC (control)), 7%; in series [1] (alpha-lipoic acid 5 μg/ml DMEM + BAC 0.001%) it was 13%; in series [1] (alpha-lipoic acid 5 μg/ml in DMEM, no BAC (control)), 7%. Besides, the “Deleterious effects of free radicals on corneal and/or conjunctival cells (DCFH-DA test)” value in series [3] is “significant dose-related decrease”. The “Production of superoxide anion and cellular degeneration associated with lipid peroxidation (hydroethidine test)” value in series [4] was “significant dose-related reduction”.
